Reference: patent US20130209368A1, “NEAR INFRARED FLUORESCENT PARTICLES AND USES THEREOF” (YISSUM RESEARCH DEVELOPMENT COMPANY OF THE HEBREW …, priority 2010, published 2013)

Legend:
[1] = Absorption of ICG over time at light and at dark; type: physicochemical
Protocol: Absorbance spectra of the samples were taken using a Cary 100 Biospectrophotometer, in a 1 cm polystyrene cell, and a scan rate of 600 nm/min.
The red shift is accompanied with quenching of fluorescence, i.e., the larger the red shift the lower the fluorescence intensity. Because the fluorescence intensity of ICG-liposomes was greater than that of unbound ICG molecules (aqueous solution), the quantum yield ratio between the two states in which ICG is present was determined, for a concentration of 1.28×10^−3 mM. As mentioned above, ICG is poorly stable in aqueous solutions due to degradation, and therefore, in order to evaluate the stability of the ICG-adsorbed liposomes, the absorption of this fluorescent probe, when dissolved in an aqueous solution or adsorbed to the liposomes, was measured at light and at dark over time.

A431 cells = experiment: EGF-FITC labeling of A431 cells by fluorescent microscopy; type: cell-based; conditions: 10 ng/ml, 15 min; reduced by excess unlabeled EGF
Protocol: (§1) FIGS. 7A-7D show purification and bioactivity validation of EGF-FITC. Purification of FITC-labeled EGF was performed in two sequential steps of desalting (7A) and ion exchange (7B). A431 cultures were incubated with 10 ng/ml for 10 min with native (EGF) and FITC-labeled EGF (EGF-FITC) or left untreated. The phosphorylation of Erk (p-Erk) was evaluated using Western blotting. Total Erk protein (pan-Erk) was measured for internal control purposes to assure loading of equal protein quantities (7C). A431 cells were incubated for 15 min with 10 ng/ml EGF-FITC in the presence or absence of excess unlabeled EGF (500 ng/ml) or left untreated. The cultures were visualized using fluorescent microscopy at 40× magnification (7D).
In order to study the binding of cetuximab-labeled ICG-adsorbed liposomes to cell overexpressing EGFR we prepared FITC-labeled EGF (EGF-FITC) to be used as positive control. EGF-FITC was purified from excess FITC and unlabeled FOP via desalting and ion exchange purification steps. Following desalting, the fraction containing EGF and EGF-FITC was collected (FIG. 7A) and further processed to separate labeled from unlabeled EGF. […] Upon purification of EGF-FITC, the bioactivity of the labeled protein was evaluated. […] Following validation of the bioactivity of the labeled protein, EGF-FITC was used in the next experiments as a positive control.

[2] = system: Erk phosphorylation, an EGFR downstream signaling molecule, in A431 cells; experiment: EGF-FITC bioactivity: Erk phosphorylation by Western blotting; type: cell-based; conditions: A431 cultures, 10 ng/ml for 10 min
Protocol: as §1, with “The cultures were visualized using fluorescent microscopy at 40× magnification (7D).” left out
Western blotting was performed as described by Lecht et al. (2010). Briefly, total cellular protein was extracted following lysis of the A431 cells and quantified using the Bradford reagent assay (Bio-Rad, Hercules, Calif., USA). For Western blotting, equal quantities of protein (40 μg) were loaded on 10% polyacrylamide gels, separated by SDS-PAGE (100 V for 1.5 hrs), and transferred on ice to nitrocellulose membranes (90 V for 1.5 hrs) (Whatman, Germany). […]
In order to study the binding of cetuximab-labeled ICG-adsorbed liposomes to cell overexpressing EGFR we prepared FITC-labeled EGF (EGF-FITC) to be used as positive control. […] Upon purification of EGF-FITC, the bioactivity of the labeled protein was evaluated. […]

## CC1(C)C(/C=C/C=C/C=C/C=C2\N(CCCCS(=O)(=O)[O-])c3ccc4ccccc4c3C2(C)C)=[N+](CCCCS(=O)(=O)[O-])c2ccc3ccccc3c21.[Na+] [ICG, Indocyanine green]
[1]
  ICG absorption over time: decreases over time both in light and in dark

## EGF-FITC: human recombinant EGF covalently labeled with FITC, used as positive control
A431 cells
  labeling of A431 cells: highly specific labeling
[2]
  Erk phosphorylation: able to induce Erk phosphorylation
